The text below walks through data of patent US11801255B2, “Lipid disulfide prodrugs and uses related thereto” (priority 2017, dated 2023).

The conditions of data set [1]: monkeys; cited from earlier work.
For data set [2] the following is noted: rats; cited from earlier work.
Data set [3] concerns HIV-1. Nature of the data set: microbe, parasite or virus in culture. As for the experimental part:
(§1) Compounds synthesized were evaluated against HIV-infected PBMCs and antiviral activity was assessed by measuring reverse transcriptase in cell supernatants. Compounds 11a-e, 12a-e, and 13 were assayed against HBV and qPCR was used to quantify viral DNA following incubation in HepG2.2.15 cells after 6 days.

Data set [4] is described as follows: in vitro. Format: cell-based, human. Conditions: human, Table 1, viability of uninfected cells reduced by 50%, read-out: HIV-1 CC50 (PBMCs).
Data set [5] deals with HBV. Nature of the data set: Antiviral activity against HBV in HepG2.2.15 cells, viral DNA by qPCR after 6 days. Conditions: for HBV TI (CC50/EC50): HepG2. Here is the method:
as §1
On the technique in general: In qPCR the cycle at which signal appears reflects the starting amount.

Data set [6] is described as follows: Cytotoxicity: viability of uninfected HepG2 cells. Format: cell-based. Conditions: human, uninfected HepG2 cells; Table 1; uninfected cells; read-out: HBV CC50 (HepG2).
The subject of data set [7] is HepG2. Nature of the data set: Cytotoxicity: viability of uninfected HepG2 cells. Format: cell-based. Conditions: read-out: HBV CC50 (HepG2).
Data set [8] is described as follows: Stability in human plasma/serum by LC-MS. Format: in vitro ADME.
Method: Aliquots of each sample were analyzed by LC-MS at varying times points over the course of 2 hours with a final time point at 24 to assess decomposition.
A short description of data set [9]: Stability in PBS (pH 7.4), carbonate/bicarbonate buffer (pH 9) and DMEM by LC-MS. Conditions: for half-life: PBS buffer.
Method: Compound 11c and 11d were selected as model compounds and subjected to various media including human serum, PBS buffer (pH 7.4), Dulbecco's Modified Eagle Medium (DMEM), and carbonate/bicarbonate buffer (pH 9). Aliquots of each sample were analyzed by LC-MS at varying times points over the course of 2 hours with a final time point at 24 to assess decomposition.
Experiments were performed to see how compounds how compounds 11c and 11d would fare in the presence of base (pH 9), PBS (pH 7.4), and upon exposure to nucleophilic media (DMEM). […] To this end, the stability of hexadecyloxypropyl 2′-deoxy-2′-fluorouridine, a non-labile alkoxyalkyl lipid conjugate of 2′-deoxy-2′-fluorouridine in PBS buffer using Pyrex, Kimax, and silanized glassware was assessed. […] This prompted re-assessment of the PBS stability of the disulfide lipid conjugates in Kimax glassware. Note that all stability experiments were performed in Kimax glassware using hexadecyloxypropyl 2′-deoxy-2′-fluorouridine as an internal standard.
In data set [10] the test system is PBMCs. Briefly: in vitro. It is filed as cell-based, human. Conditions: Table 1; viability of uninfected cells reduced by 50%; read-out: HIV-1 CC50 (PBMCs).
Where [11] appears, read: Human immunodeficiency virus 1, PBMC, read-out: HIV-1 EC50 (PBMCs).
Where [12] appears, read: Human immunodeficiency virus 1, PBMC, read-out: HIV-1 activity (EC50).

A word on the bioavailability: it is the share of a dose that reaches the circulation, judged against a reference dose that is usually intravenous. What is called CC50 is the concentration at which the toxic effect on the cells reaches its halfway point. The term half-life denotes how long it takes for the measured level to halve.

The structures appear in SMILES notation. Read-outs that look alike come from different tables or passages of the source.

As to `Nc1ncnc2c1ncn2CCOCP(=O)(O)O` [adefovir], the bioavailability is listed as < 1% in [1] and 8-11% in data set [2].

With `CCCCCCCCCCCCCCCCSSCCOP(=O)(O)COC(C)Cn1cnc2c(N)ncnc21` (stereo not shown) [Compound 11d, 2-(hexadecyldisulfanyl)ethyl hydrogen (((1-(6-amino-9H-purin-9-yl)propan-2-yl)oxy)methyl)phosphonate], the EC50 was 0.00065 µM in data set [3] (setting [11]); ~0.0005 µM in [3] (setting [12]); 0.02 µM in data set [5] (Hepatitis B virus, HepG2, read-out: HBV EC50 (HepG2)); 0.02 µM in data set [5] (Hepatitis B virus, HepG2, read-out: HBV potency). The “HIV-1 TI (CC50/EC50)” value is 22,000 in data set [3] (Table 1, PBMCs) and 22,000 in data set [3] (Table 3, PBMCs). Moreover, the CC50 in data set [4] (uninfected PBMCs) was 14.3 µM; in data set [6], > 25 µM; in data set [7] (Table 3) it was > 25 µM. For the same molecule, the “HBV TI (CC50/EC50)” value in data set [5] (Table 1) is reported as >1250; in [5] (Table 3) it was >1200. Also, the half-life was > 24 h in data set [8] (human serum, Kimax glassware, read-out: stability (half-life) in human serum); > 24 h in data set [8] (human, human plasma, read-out: half-life in human plasma); ≤ 2 h in data set [9] (carbonate/bicarbonate buffer and DMEM, pH 9); < 0.333 h in data set [9] (pH 7.4).

Turning to `CCCCCCCCCCCCCCSSCCOP(=O)(O)CO[C@H](C)Cn1cnc2c(N)ncnc21.N` [Compound 11c], in data set [3] (Table 1, PBMCs), the “HIV-1 TI (CC50/EC50)” value is on record as 28,000. The EC50 in data set [3] (read-out: HIV-1 EC50 (PBMCs), Table 1, inhibit HIV-1 by 50%, average of triplicate) amounted to 0.0005 µM; in [5] (read-out: HBV EC50 (HepG2), Table 1, inhibit HBV by 50%), 0.444 µM. Moreover, the CC50 in data set [10] was 14 µM; in data set [7] (Table 1, uninfected cells), > 25 µM. Besides, the “HBV TI (CC50/EC50)” value in [5] (Table 1) is reported as >56. The “stability of C14 chain relative to C16 linker of compound 11d” value in data set [9] (all examined media except human serum) is given as “near two-fold stability increase”.

In the case of `CCCCCCCCCCCCCCCCOCCCOP(=O)(O)CO[C@H](C)Cn1cnc2c(N)ncnc21` [CMX-157, Hexadecyloxypropyl-Tenofovir, reference compound], the “HIV-1 TI (CC50/EC50)” value in data set [3] is listed as >5000. Besides, the EC50 in [3] (setting [11]) and in [3] (setting [12]) was 0.02 µM in each case. For the same molecule, the CC50 in data set [4] was > 100 µM.
